Data: patent US4191770A, “N1 -acyl-N2 -phenyldiaminopropanols and pharmaceutical compositions thereof” (Kali-Chemie Pharma GmbH, priority 1977, dated 1980)
Counter-ions that a name gives are not always drawn.

Key:
in vivo = settings: mouse, po, single dose p.o., unfed NMRI mice, 7 days, read-out: Toxicity LD50 p.o.
Protocol: The acute 7-day-toxicity is determined after a single application per os in white NMRI-mice which had not been fed. The calculation of the LD50 is carried out by probitanalysis by means of electronic data processing (see L. Cavalli-Sforza, Gustav Fischer-Verlag, Stuttgart (1964), Grundbegriffe der Biometrie, p. 153).

[1] = test system: indomethacine induced ulcers; assay: Effectiveness against indomethacine-induced ulcers in the rat; assay type: in vivo, rats; settings: for inhibition in vivo at 75 mg/kg: dosage 75 mg/kg p.o.; for inhibition in vivo at 150 mg/kg: dosage 150 mg/kg p.o.; for inhibition in vivo at 68 mg/kg: dosage 68 mg/kg p.o.
Protocol: 2. Effectiveness against indomethacineinduced ulcers in the rate (Modified test procedure according to
To at least 6 male rats, having a body-weight of from 170 to 220 g, dosages of the test compounds are administered orally in an amount of 0.5 ml of a suspension medium per 100 g animal body-weight. The animals of the blank control group receive the corresponding amount by volume of the suspension medium only. One hour after application of the test compounds, a dosage of 20 mg per kg of indomethacine contained in an amount of 0.5 ml of a suspension per 100 g animal body-weight, are orally applied to each animal for producing ulcers. 24 hours after the application of indomethacine, the animals are sacrificed.
The mean value and the standard deviation of the numbers of ulcers is calculated, and subsequently the inhibiting activity of the test compounds and a standard compound are calculated as percent inhibition compared with the blank control group.

secretion in the stomach = assay: Effect on the secretion in the stomach of narcotized rats (determination of the pH-value); assay type: in vivo; settings: for inhibition in vivo at 300 mg/kg: po, dosage 300 mg/kg p.o., narcotized rats, acetylcholine control = 100
Protocol: 3. Effect on the secretion in the stomach of narcotized rats (determinationof the pH-value)
The test is performed on narcotized (urethane narcosis) male rats, having a body-weight of 200-230 g. For this purpose N/4000-sodium hydroxide solution is perfused into the stomachs of rats at a rate of 1 ml per minute by means of a cardia- and pylorus-catheter. The pH value of the perfusate, which leaves the stomach by way of the pylorus catheter, is determined by means of a one-rod measuring system, and is continuously registered.
In order to perform a comparative control test, after a pre-run period of 20 minutes, 10 mg per kg of acetylcholine are applied intraperitoneously. The resulting comparative control value is defined as being 100.
For evaluation, the surface-integral is calculated numerically with the aid of the rule of Simpson. The degree of inhibition of the secretion is calculated from the difference between the surfaces before and after the application of the test compound.

[2] = Rattus norvegicus, po, 1 h before 20 mg/kg indomethacine, 24 h
[3] = at a low dosage, footnote of Table I

SMILES: COCCN(CC(O)CNC(=O)c1ccco1)c1ccc(Cl)cc1 (stereo not shown) [Compound 13, N1-furoyl-N2-methoxyethyl-N2-(4-chlorophenyl)-1,3-diaminopropan-2-ol]
- LD50 at 168 h (in vivo): > 1470 mg/kg
- inhibition in vivo at 75 mg/kg [1, 2]: 35%
- inhibition in vivo at 300 mg/kg (secretion in the stomach; Rattus norvegicus): 0%

SMILES: CC(=O)NCC(O)CN(C)c1ccc(Cl)cc1 (stereo not shown) [Compound 1, N1-acetyl-N2-methyl-N2-(4-chlorophenyl)-1,3-diaminopropan-2-ol]
- LD50 at 168 h (in vivo): 2260 mg/kg
- inhibition in vivo at 150 mg/kg [1, 2]: 33%
- inhibition in vivo at 300 mg/kg (secretion in the stomach; Rattus norvegicus): 0%

SMILES: COc1ccc(C=CC(=O)NCC(O)CN(C)c2ccc(Cl)cc2)cc1OC (stereo not shown) [Compound 10, N1-(3,4-dimethoxycinnamoyl)-N2-methyl-N2-(4-chlorophenyl)-1,3-diaminopropan-2-ol]
- LD50 at 168 h (in vivo): > 6810 mg/kg
- inhibition in vivo at 75 mg/kg [1, 2]: 32%
- inhibition in vivo at 300 mg/kg (secretion in the stomach; Rattus norvegicus): 0%

SMILES: CN(CC(O)CNC(=O)c1ccccn1)c1ccc(Cl)cc1 (stereo not shown) [Compound 11, N1-picolinoyl-N2-methyl-N2-(4-chlorophenyl)-1,3-diaminopropan-2-ol]
- LD50 at 168 h (in vivo): 3300 mg/kg
- inhibition in vivo at 68 mg/kg [1, 2]: 71%
- inhibition in vivo at 300 mg/kg (secretion in the stomach; Rattus norvegicus): 0%

SMILES: CCCN(CC(O)CNC(=O)C1CCCCC1)c1ccccc1 (stereo not shown) [Compound 7, N1-cyclohexylcarbonyl-N2-propyl-N2-phenyl-1,3-diaminopropan-2-ol]
- LD50 at 168 h (in vivo): > 1470 mg/kg
- inhibition in vivo at 150 mg/kg [1, 2]: 34%
- inhibition in vivo at 300 mg/kg (secretion in the stomach; Rattus norvegicus): 0%

SMILES: CN(CC(O)CNC(=O)C1CCCCC1)c1ccc(F)cc1 (stereo not shown) [Compound 6, N1-cyclohexylcarbonyl-N2-methyl-N2-(4-fluorophenyl)-1,3-diaminopropan-2-ol]
- LD50 at 168 h (in vivo): > 1470 mg/kg
- inhibition in vivo at 150 mg/kg [1, 2]: 40%
- inhibition in vivo at 300 mg/kg (secretion in the stomach; Rattus norvegicus): 0%

SMILES: CCCN(CC(O)CNC(=O)c1ccc(OC)c(OC)c1)c1ccc(Cl)cc1 (stereo not shown) [Compound 17, N1-(3,4-dimethoxybenzoyl)-N2-propyl-N2-(4-chlorophenyl)-1,3-diaminopropan-2-ol]
- LD50 at 168 h (in vivo): > 6810 mg/kg
- inhibition in vivo at 75 mg/kg [1, 2]: 34%
- inhibition in vivo at 300 mg/kg (secretion in the stomach; Rattus norvegicus): 0%

SMILES: CCCCCC(=O)NCC(O)CN(C)c1ccc(F)cc1 (stereo not shown) [Compound 2, N1-hexanoyl-N2-methyl-N2-(4-fluorophenyl)-1,3-diaminopropan-2-ol]
- LD50 at 168 h (in vivo): 4320 mg/kg
- inhibition in vivo at 150 mg/kg [1, 2]: 44%
- inhibition in vivo at 300 mg/kg (secretion in the stomach; Rattus norvegicus): 0%

SMILES: CN(CC(O)CNC(=O)C1CCCCC1)c1ccccc1 (stereo not shown) [Compound 5, N1-cyclohexylcarbonyl-N2-methyl-N2-phenyl-1,3-diaminopropan-2-ol]
- LD50 at 168 h (in vivo): 3200 mg/kg
- inhibition in vivo at 150 mg/kg [1, 2]: 47%
- inhibition in vivo at 300 mg/kg (secretion in the stomach; Rattus norvegicus): 0%

SMILES: CCCCCCCCCCCCCCCC(=O)NCC(O)CN(C)c1ccc(Cl)cc1 (stereo not shown) [Compound 3, N1-hexadecanoyl-N2-methyl-N2-(4-chlorophenyl)-1,3-diaminopropan-2-ol]
- LD50 at 168 h (in vivo): > 6810 mg/kg
- inhibition in vivo at 150 mg/kg [1, 2]: 40%
- inhibition in vivo at 300 mg/kg (secretion in the stomach; Rattus norvegicus): 0%

SMILES: CN1[C@@H]2CC[C@H]1C[C@@H](OC(=O)C(CO)c1ccccc1)C2 (stereo partly shown) [A, atropine sulfate, reference compound]
- inhibition in vivo at 12 mg/kg ([1]; Rattus norvegicus, po, dosage 12 mg/kg p.o., 1 h before 20 mg/kg indomethacine, 24 h): 26%
- effect on the ulcer (in words) [1, 3]: does not have a sufficiently
- inhibition in vivo at 0.5 mg/kg (secretion in the stomach; Rattus norvegicus, ip, read-out: Inhibition of secretion in the stomach, % inhibition): 100%
- inhibition of the secretion in the stomach (in words) (secretion in the stomach; [3]): strong inhibition

SMILES: COc1ccc(C(=O)NCC(O)CN(C)c2ccc(F)cc2)cc1OC (stereo not shown) [Compound 15, N1-(3,4-dimethoxybenzoyl)-N2-methyl-N2-(4-fluorophenyl)-1,3-diaminopropan-2-ol]
- LD50 at 168 h (in vivo): > 6810 mg/kg
- inhibition in vivo at 75 mg/kg [1, 2]: 32%
- inhibition in vivo at 300 mg/kg (secretion in the stomach; Rattus norvegicus): 0%

SMILES: CC(C)c1ccc(N(C)CC(O)CNC(=O)c2ccco2)cc1 (stereo not shown) [Compound 19, N1-furoyl-N2-methyl-N2-(4-isopropylphenyl)-1,3-diaminopropan-2-ol]
- LD50 at 168 h (in vivo): > 1470 mg/kg
- inhibition in vivo at 75 mg/kg [1, 2]: 31%
- inhibition in vivo at 300 mg/kg (secretion in the stomach; Rattus norvegicus): 0%

SMILES: COc1ccc(C(=O)NCC(O)CN(C)c2ccc(Cl)c(Cl)c2)cc1OC (stereo not shown) [Compound 16, N1-(3,4-dimethoxybenzoyl)-N2-methyl-N2-(3,4-dichlorophenyl)-1,3-diaminopropan-2-ol]
- LD50 at 168 h (in vivo): > 6810 mg/kg
- inhibition in vivo at 75 mg/kg [1, 2]: 38%
- inhibition in vivo at 300 mg/kg (secretion in the stomach; Rattus norvegicus): 0%

SMILES: CN(CC(O)CNC(=O)C=Cc1ccccc1)c1ccc(Cl)cc1 (stereo not shown) [Compound 9, N1-cinnamoyl-N2-methyl-N2-(4-chlorophenyl)-1,3-diaminopropan-2-ol]
- LD50 at 168 h (in vivo): > 6810 mg/kg
- inhibition in vivo at 68 mg/kg [1, 2]: 32%
- inhibition in vivo at 300 mg/kg (secretion in the stomach; Rattus norvegicus): 0%

SMILES: COc1ccc(C(=O)NCC(O)CNc2ccccc2Cl)cc1OC (stereo not shown) [Compound 14, N1-(3,4-dimethoxybenzoyl)-N2-(2-chlorophenyl)-1,3-diaminopropan-2-ol]
- LD50 at 168 h (in vivo): > 6700 mg/kg
- inhibition in vivo at 75 mg/kg [1, 2]: 33%
- inhibition in vivo at 300 mg/kg (secretion in the stomach; Rattus norvegicus): 0%

SMILES: CN(CC(O)CNC(=O)c1ccco1)c1ccc(Cl)c(Cl)c1 (stereo not shown) [Compound 12, N1-furoyl-N2-methyl-N2-(3,4-dichlorophenyl)-1,3-diaminopropan-2-ol]
- LD50 at 168 h (in vivo): > 1470 mg/kg
- inhibition in vivo at 75 mg/kg [1, 2]: 29%
- inhibition in vivo at 300 mg/kg (secretion in the stomach; Rattus norvegicus): 0%

SMILES: CN(CC(O)CNC(=O)Cc1ccccc1)c1ccc(Cl)cc1 (stereo not shown) [Compound 8, N1-phenacetyl-N2-methyl-N2-(4-chlorophenyl)-1,3-diaminopropan-2-ol]
- LD50 at 168 h (in vivo): 3860 mg/kg
- inhibition in vivo at 75 mg/kg [1, 2]: 26%
- inhibition in vivo at 300 mg/kg (secretion in the stomach; Rattus norvegicus): 0%

SMILES: CN(CC(O)CNC(=O)c1ccccc1F)c1ccc(Cl)c(Cl)c1 (stereo not shown) [Compound 18, N1-(2-fluorobenzoyl)-N2-methyl-N2-(3,4-dichlorophenyl)-1,3-diaminopropan-2-ol]
- LD50 at 168 h (in vivo): > 1470 mg/kg
- inhibition in vivo at 75 mg/kg [1, 2]: 33%
- inhibition in vivo at 300 mg/kg (secretion in the stomach; Rattus norvegicus): 0%

SMILES: CN(CC(O)CNC(=O)C1CC1)c1ccccc1 (stereo not shown) [Compound 4, N1-cyclopropylcarbonyl-N2-methyl-N2-phenyl-1,3-diaminopropan-2-ol]
- LD50 at 168 h (in vivo): > 1470 mg/kg
- inhibition in vivo at 150 mg/kg [1, 2]: 36%
- inhibition in vivo at 300 mg/kg (secretion in the stomach; Rattus norvegicus): 0%
